Experimental data from patent publication US11554171B2, “Compounds and methods for the targeted degradation of bromodomain-containing proteins” (Arvinas Operations, Inc., priority 2015, dated 2023).

System: c-myc in 22RV-1 cells
Experiment: Human c-myc ELISA assay
Assay type: cell-based
Conditions: Homo sapiens; for Emax: 22Rv1, 18 h, read-out: Degradation of BRD4: Maximum inhibition (%) c-Myc ELISA in 22RV1 cells; for DC50: 22Rv1, read-out: Degradation of BRD4: DC50 (uM) c-Myc ELISA in 22RV1 cells
Procedure: 22RV-1 cells are seeded at 30,000 cells/well at a volume of 75 μL/well in RPMI+10% FBS media in 96-well plates and grown overnight at 37 C. Cells are dosed with compounds at 4× concentration diluted in 0.4% DMSO; compounds are serially diluted 1:3 for 8-point dose curve. 25 ul of compounds is added to cells for a final concentration starting at 300 nM-0.3 nM or 1 uM-1 nM in 0.1% DMSO and incubated for 18 hrs. Media is aspirated, cells washed 1× with PBS and aspirated. Cells are lysed in 50 ul RIPA buffer (50 mM Tris pH8, 150 mM NaCl, 1% Tx-100, 0.1% SDS, 0.5% sodium deoxycholate) supplemented with protease and phosphatase inhibitors. Plates are incubated on ice for 15 minutes then centrifuged at 4 C for 10 min at 4000 rpm. Add 50 ul of cleared lysate from 96-well assay plate into 96-well c-myc ELISA plate (Novex, Life Technologies Catalog #KH02041). Reconstitute c-myc standard with standard diluent buffer; standard curve range is 333 pg/ml-0 pg/ml, diluted 1:2 for 8-point dose curve. The rest of the assay was performed following the protocol from the c-myc ELISA kit. Data is analyzed and plotted using GraphPad Prism software. Compounds described in this application were assayed and c-myc suppression potency is listed in the following Table (A: DC50<10 nM; B: DC50 10-100 nM; C: DC50: 100-1000 nM; D: DC50>1000 nM)

| SMILES | DC50 [µM] | Emax [%] |
| --- | --- | --- |
| Cc1ncsc1-c1ccc(CNC(=O)[C@@H]2C[C@@H](O)CN2C(=O)[C@@H](NC(=O)COCCCOCCCCOc2ccc3c(c2)c2c(C(N)=O)cc(-c4c(C)noc4C)cc2n3Cc2ccccc2)C(C)(C)C)cc1 [Example 117, 9-benzyl-2-(dimethyl-1,2-oxazol-4-yl)-6-{4-[3-({[(2S)-1-[(2S,4R)-4-hydroxy-2-({[4-(4-methyl-1,3-thiazol-5-yl)phenyl]methyl}carbamoyl)pyrrolidin-1-yl]-3,3-dimethyl-1-oxobutan-2-yl]carbamoyl}methoxy)propoxy]butoxy}-9H-carbazole-4-carboxamide] | < 0.01 | 100 |
| Cc1ncsc1-c1ccc([C@H](C)NC(=O)[C@@H]2C[C@@H](O)CN2C(=O)[C@@H](NC(=O)CN2CCC(O[C@H]3C[C@H](NC(=O)C[C@@H]4N=C(c5ccc(Cl)cc5)c5ccccc5-c5c(C)noc54)C3)CC2)C(C)(C)C)cc1 [Example 350, (2S,4R)-1-[(2S)-3,3-dimethyl-2-(2-{4-[(1,3-trans)-3-{2-[(7S)-9-(4-chlorophenyl)-3-methyl-5-oxa-4,8-diazatricyclo[8.4.0.0^2,^6]tetradeca-1(10),2(6),3,8,11,13-hexaen-7-yl]acetamido}cyclobutoxy]piperidin-1-yl}acetamido)butanoyl]-4-hydroxy-N-[(1S)-1-[4-(4-methyl-1,3-thiazol-5-yl)phenyl]ethyl]pyrrolidine-2-carboxamide] | < 0.01 | 100 |
| Cc1ncsc1-c1ccc(CNC(=O)[C@@H]2C[C@@H](O)CN2C(=O)[C@@H](NC(=O)COCCCCOCCCOc2ccc(NC(=O)C[C@@H]3N=C(c4ccc(Cl)cc4)c4c(sc(C)c4C)-n4c(C)nnc43)cc2)C(C)(C)C)cc1 [Example 15] | 0.01 to 0.1 | 100 |
| Cc1ncsc1-c1ccc(CNC(=O)[C@@H]2C[C@@H](O)CN2C(=O)[C@@H](NC(=O)COCCOCCOCCCOCCOCCNC(=O)C[C@@H]2N=C(c3ccc(Cl)cc3)c3c(sc(C)c3C)-n3c(C)nnc32)C(C)(C)C)cc1 [Example 8] | 0.1 to 1 | 95.9 |
| CC1=NN=C2C1c1sc(C)c(C)c1C(c1ccc(Cl)cc1)=N[C@H]2CC(=O)NCCOCCOCCC(=O)N[C@H](C(=O)N1C[C@H](O)CC1C(=O)N[C@@H](C)c1ccc(-c2scnc2C)cc1)C(C)(C)C (some centres unmarked) [Example 136] | 0.01 to 0.1 | 96 |
| Cc1ncsc1-c1ccc([C@@H](CO)NC(=O)[C@@H]2C[C@@H](O)CN2C(=O)[C@@H](NC(=O)CN2CCC(O[C@H]3C[C@H](NC(=O)C[C@@H]4N=C(c5ccc(Cl)cc5)c5c(sc(C)c5C)-n5c(C)nnc54)C3)CC2)C(C)(C)C)cc1 [Example 352, (2S,4R)-1-[(2S)-3,3-dimethyl-2-(2-{4-[(1,3-trans)-3-{2-[(9S)-7-(4-chlorophenyl)-4,5,13-trimethyl-3-thia-1,8,11,12-tetraazatricyclo[8.3.0.0^2,^6]trideca-2(6),4,7,10,12-pentaen-9-yl]acetamido}cyclobutoxy]piperidin-1-yl}acetamido)butanoyl]-4-hydroxy-N-[(1S)-2-hydroxy-1-[4-(4-methyl-1,3-thiazol-5-yl)phenyl]ethyl]pyrrolidine-2-carboxamide] | > 1 | < 20 |
| CCc1nnc2n1-c1sc(C)c(C)c1C(c1ccc(Cl)cc1)=N[C@H]2CC(=O)Nc1ccc(OCCCOCCCOCC(=O)N[C@H](C(=O)N2C[C@H](O)C[C@H]2C(=O)NCc2ccc(-c3scnc3C)cc2)C(C)(C)C)cc1 [Example 47] | 0.1 to 1 | 89 |
| Cc1ncsc1-c1ccc(CNC(=O)[C@@H]2C[C@@H](O)CN2C(=O)[C@@H](NC(=O)Cc2cccc(OCCCNC(=O)C[C@@H]3N=C(c4ccc(Cl)cc4)c4c(sc(C)c4C)-n4c(C)nnc43)c2)C(C)(C)C)cc1 [Example 61, (2S,4R)-1-[(2S)-2-{2-[3-(3-{2-[(9S)-7-(4-chlorophenyl)-4,5,13-trimethyl-3-thia-1,8,11,12-tetraazatricyclo[8.3.0.0^2,^6]trideca-2(6),4,7,10,12-pentaen-9-yl]acetamido}propoxy)phenyl]acetamido}-3,3-dimethylbutanoyl]-4-hydroxy-N-{[4-(4-methyl-1,3-thiazol-5-yl)phenyl]methyl}pyrrolidine-2-carboxamide] | 0.01 to 0.1 | 96 |
| Cc1ncsc1-c1ccc(CNC(=O)[C@@H]2C[C@@H](O)CN2C(=O)[C@@H](NC(=O)COCCC[S+]([O-])CCNC(=O)C[C@@H]2N=C(c3ccc(Cl)cc3)c3c(sc(C)c3C)-n3c(C)nnc32)C(C)(C)C)cc1 (some centres unmarked) [Example 112] | > 1 | 26.8 |
| Cc1ncsc1-c1ccc([C@H](C)NC(=O)[C@@H]2C[C@@H](O)CN2C(=O)[C@@H](NC(=O)Cc2ccc(O[C@H]3C[C@@H](NC(=O)C[C@@H]4N=C(c5ccc(Cl)cc5)c5c(sc(C)c5C)-n5c(C)nnc54)C3)nc2)C(C)(C)C)cc1 [Example 270, (2S,4R)-1-[(2S)-3,3-dimethyl-2-(2-{6-[(1,3cis)-3-{2-[(9S)-7-(4-chlorophenyl)-4,5,13-trimethyl-3-thia-1,8,11,12-tetraazatricyclo[8.3.0.0^2,^6]trideca-2(6),4,7,10,12-pentaen-9-yl]acetamido}cyclobutoxy]pyridin-3-yl}acetamido)butanoyl]-4-hydroxy-N-[(1S)-1-[4-(4-methyl-1,3-thiazol-5-yl)phenyl]ethyl]pyrrolidine-2-carboxamide] | < 0.01 | 92.2 |

Continued, in another order:

| DC50 [µM] | SMILES | Emax [%] |
| --- | --- | --- |
| 0.01 to 0.1 | Cc1ncsc1-c1ccc([C@H](C)NC(=O)[C@@H]2C[C@@H](O)CN2C(=O)[C@@H](NC(=O)COc2ccc(N3CC[C@H](NC(=O)C[C@@H]4N=C(c5ccc(Cl)cc5)c5c(sc(C)c5C)-n5c(C)nnc54)C3)nc2)C(C)(C)C)cc1 [Example 236] | 88.9 |
| < 0.01 | Cc1ncsc1-c1ccc([C@H](C)NC(=O)[C@@H]2C[C@@H](O)CN2C(=O)[C@@H](NC(=O)/C=C/c2cc(O[C@@H](C)CNC(=O)C[C@@H]3N=C(c4ccc(Cl)cc4)c4c(sc(C)c4C)-n4c(C)nnc43)ccc2F)C(C)(C)C)cc1 [Example 196] | 94.5 |
| 0.01 to 0.1 | Cc1ncsc1-c1ccc([C@H](C)NC(=O)[C@@H]2C[C@@H](O)CN2C(=O)[C@@H](NC(=O)CN2CCN(C3CC4(C3)CN(C(=O)C[C@@H]3N=C(c5ccc(Cl)cc5)c5c(sc(C)c5C)-n5c(C)nnc53)C4)C[C@@H]2C)C(C)(C)C)cc1 [Example 358] | > 90 |
| < 0.01 | Cc1ncsc1-c1ccc([C@H](C)NC(=O)[C@@H]2C[C@@H](O)CN2C(=O)[C@@H](NC(=O)Cc2ccc(N3CC[C@@H](NC(=O)C[C@@H]4N=C(c5ccc(Cl)cc5)c5c(sc(C)c5C)-n5c(C)nnc54)C3)cc2)C(C)(C)C)cc1 [Example 230, (2S,4R)-1-[(2S)-2-(2-{4-[(3R)-3-{2-[(9S)-7-(4-chlorophenyl)-4,5,13-trimethyl-3-thia-1,8,11,12-tetraazatricyclo[8.3.0.0^2,^6]trideca-2(6),4,7,10,12-pentaen-9-yl]acetamido}pyrrolidin-1-yl]phenyl}acetamido)-3,3-dimethylbutanoyl]-4-hydroxy-N-[(1S)-1-[4-(4-methyl-1,3-thiazol-5-yl)phenyl]ethyl]pyrrolidine-2-carboxamide] | 100 |
| < 0.01 | Cc1ncsc1-c1ccc([C@H](C)NC(=O)[C@@H]2C[C@@H](O)CN2C(=O)[C@@H](NC(=O)c2cc3cc(O[C@H](C)CNC(=O)C[C@@H]4N=C(c5ccc(Cl)cc5)c5c(sc(C)c5C)-n5c(C)nnc54)ccc3o2)C(C)(C)C)cc1 [Example 206, (2S,4R)-1-[(2S)-2-[(5-{[(2R)-1-{2-[(9S)-7-(4-chlorophenyl)-4,5,13-trimethyl-3-thia-1,8,11,12-tetraazatricyclo[8.3.0.0^2,^6]trideca-2(6),4,7,10,12-pentaen-9-yl]acetamido}propan-2-yl]oxy}-1-benzofuran-2-yl)formamido]-3,3-dimethylbutanoyl]-4-hydroxy-N-[(1S)-1-[4-(4-methyl-1,3-thiazol-5-yl)phenyl]ethyl]pyrrolidine-2-carboxamide] | 90 |
| > 1 | Cc1ncsc1-c1ccc([C@H](C)NC(=O)[C@@H]2C[C@@H](O)CN2C(=O)[C@H](n2cc(-c3ccnc(O[C@H]4C[C@H](NC(=O)C[C@@H]5N=C(c6ccc(Cl)cc6)c6c(sc(C)c6C)-n6c(C)nnc65)C4)c3)cn2)C(C)(C)C)cc1 [Example 233] | 26 |
| 0.01 to 0.1 | Cc1ncoc1-c1ccc(CNC(=O)[C@@H]2C[C@@H](O)CN2C(=O)[C@@H](NC(=O)COc2ccc(O[C@H]3C[C@@H](NC(=O)C[C@@H]4N=C(c5ccc(Cl)cc5)c5c(sc(C)c5C)-n5c(C)nnc54)C3)nc2)C(C)(C)C)cc1 [Example 258] | 87.5 |
| 0.01 to 0.1 | Cc1ncsc1-c1ccc([C@H](C)NC(=O)[C@@H]2C[C@@H](O)CN2C(=O)C(C(C)C)n2cc(-c3cc(F)cc(O[C@H](C)CNC(=O)C[C@@H]4N=C(c5ccc(Cl)cc5)c5c(sc(C)c5C)-n5c(C)nnc54)c3)cn2)cc1 (some centres unmarked) [Example 213] | 94.3 |
| < 0.01 | Cc1noc(-c2ccc([C@H](C)NC(=O)[C@@H]3C[C@@H](O)CN3C(=O)[C@@H](NC(=O)COc3ccc(O[C@H]4C[C@@H](NC(=O)C[C@@H]5N=C(c6ccc(Cl)cc6)c6c(sc(C)c6C)-n6c(C)nnc65)C4)nc3)C(C)(C)C)cc2)n1 [Example 271] | 96.4 |
